Assay [1] has as its system Lineage-CD11b+ monocytes. In words: Monocyte analysis and counting after adjuvant injection in mice. The format is in vivo, C57BL/6 mice. Here is the method: (§1) 24-Hours after injection of the TLR adjuvants, peripheral blood was drawn from C57BL/6 mice via cardiac puncture with lithium-heparin as anticoagulant. Red blood cell lysis was performed twice on pooled blood with Ammonium Chloride-based Buffer (Sigma, Steinheim, Germany) and cells were counted with the EasyCount™ System (Immunicon). […] Cells were finally washed three times and fixed for 15 min. with a 2% paraformaldehyde solution in PBS. Fluorescence minus one (FMO) controls were always included in the assays for fluorescent compensation setting. Samples were acquired on a flow cytometer (BD FACSCanto II) and data analyzed with the FACSDiva software (BD Biosciences). Monocytes were identified by their Side/Forward scatter properties and gated as CD3-/CD45R/B220-/Ly-6G-/NK1.1-(Lineage-)/CD11b+ cells. CD11b+ monocyte frequency was reported as a percentage of the total cells excluding debris.
as §1, with “24 hours” for “24-Hours”, “each immunomodulator,” for “the TLR adjuvants,”, “min” for “min.”, “monocytes” for “monocyte”

Assay [2] concerns CD11b+ monocytes. In words: In vivo uptake assay of Aβ42 after immunization or passive immunotherapy. Set-up: species or system C57BL/6 mice; antibody-mediated Aβ peripheral uptake: dose or concentration left out as unconfirmed. Particulars: FIG. 22. The protocol: Mice: C57BL/6 female mice were purchased from Charles River. […]
[…] At day 22, 5 μg per mouse of fluorescent HiLyte Fluor™ 488-labeled Amyloid β 1-42 (Anaspec, Fremont, Calif.) was injected in the tail vein. Preparation of cells: Peripheral blood was drawn from immunized C57BL/6 mice via cardiac puncture with lithium-heparin as anticoagulant, 2 hours after i.v. injection of the Aβ1-42 HiLyte Fluor™ 488 (Day 22). Plasma of pooled blood was decanted and saved for measurement of antibody titres by ELISA. Red blood cell lysis was performed twice with Ammonium Chloride-based Buffer (Sigma, Steinheim, Germany) and cells were counted with the EasyCount™ System (Immunicon).
FACS analysis: 500,000 cells were aliquoted in a 96-well plate, washed once, incubated for 10 min. on ice in the presence of Rat anti-Mouse CD16/CD32 (clone 2.4G2-BD Fc Block™) and further stained for 30 min. with a combination of the following directly conjugated antibodies at their pre-determined optimal concentration: PE-Hamster anti-Mouse CD3 (clone 145-2C11), Rat anti-Mouse CD45R/B220 (clone RA3-6B2), Rat anti-Mouse Ly-6G (clone 1A8), Mouse anti-Mouse NK1.1 (clone PK136), APC-conjugated Rat anti-Mouse CD11b (clone M1/70), PE-Cy7-conjugated Hamster anti-Mouse CD11c (clone HL3), (all from BD PharMingen). Cells were finally washed twice and fixed for 15 min. with a 2% paraformaldehyde solution in PBS. […]

Setting [3] is: single i.m. injection, 24 hrs, FIG. 12.

“Also recorded” adds a separate entry of the source.

As for `CCCCCCCCCCC[C@H](CC(=O)N[C@H]1[C@H](OC[C@H](NC(=O)C[C@@H](CCCCCCCCCCC)OCCCCCCCCCC)C(=O)O)O[C@H](CO)[C@@H](OP(=O)(O)O)[C@@H]1OC(=O)C[C@@H](CCCCCCCCCCC)OCCCCCCCCCC)OCCCCCCCCCC` [CRX601], the “circulating monocytes numbers following injection” value in assay [1] (i.m. or i.p. routes, doses of b403, FIG. 9) is on record as “Upregulation of circulating monocytes numbers”. In assay [1] (setting [3]), the “dose enough to trigger an increase of the monocyte count compared to PBS” value is 1 µg and the “dose of maximum response (monocyte count)” value amounted to 10 µg. In addition, in assay [1] (single i.m. injection, FIG. 12), the “effect on monocyte count at 20 μg dose” value is on record as “down modulated”. Besides, the “antibody-mediated Aβ uptake, effect of CRX601 when combined with AS03 emulsion” value in assay [2] (CRX601 20 ug with AS03) is on record as “partially quenched”. The “antibody-mediated Aβ peripheral uptake” value in assay [2] (single i.m. injection, 24 hrs, Aβ Fluor i.v., 2 hrs) is reported as “highest Aβ uptake; also recorded: Dose-response observed”.

The values are drawn from patent publication US20120328605A1, “COMPOSITIONS AND USES” (priority 2010, published 2012).
